{
  "source": "patent US6579718B1",
  "about": "“Carbazolylvinyl dye protein stains” (Molecular Probes, Inc., priority 2000, dated 2003)",
  "key": {"BSA": {"molecular_target": "BSA (Bos taurus, UniProt P02769)", "sequence (P02769 25-607)": "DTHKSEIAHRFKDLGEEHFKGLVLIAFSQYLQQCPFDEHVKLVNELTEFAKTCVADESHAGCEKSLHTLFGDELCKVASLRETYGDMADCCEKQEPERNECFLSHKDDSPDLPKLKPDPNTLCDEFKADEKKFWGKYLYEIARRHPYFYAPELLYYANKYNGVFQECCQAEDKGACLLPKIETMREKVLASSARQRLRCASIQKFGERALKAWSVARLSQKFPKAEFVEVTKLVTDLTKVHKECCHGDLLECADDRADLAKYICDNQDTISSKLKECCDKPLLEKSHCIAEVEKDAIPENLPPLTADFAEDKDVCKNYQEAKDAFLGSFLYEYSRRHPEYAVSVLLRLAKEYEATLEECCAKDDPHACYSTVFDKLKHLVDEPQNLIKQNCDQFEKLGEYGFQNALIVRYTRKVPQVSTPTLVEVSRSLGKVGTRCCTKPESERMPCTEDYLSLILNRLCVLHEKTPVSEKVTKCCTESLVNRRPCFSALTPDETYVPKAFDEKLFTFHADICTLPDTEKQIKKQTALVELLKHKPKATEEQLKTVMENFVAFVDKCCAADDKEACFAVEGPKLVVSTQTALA", "assay": "Absorbance/emission spectra, fluorescence enhancement and quantum yield of dyes in solution +/- BSA (Example 21)", "format": "physicochemical, bovine", "procedure": "A particular dye of this invention is generally selected for a particular assay using one or more of the following criteria: sensitivity to poly(amino acids), insensitivity to the presence of nucleic acids, dynamic range, photostability, staining time, and spectral properties. […] Although the fluorescence enhancements and quantum yields are low to moderate in solution, some are significant relative to the long wavelength emission maxima (see Table 1 and Example 21).\nMeasurements are performed using −1 μM dye+/−150 μg/mL BSA in 10 mM Tris-HCl, pH 7.5,+0.05% SDS with a 2.0 mL sample volume. Fluorescence enhancements are calculated at emission maxima in a standard fluorometer using 470 nm excitation. Fluorescence quantum yields are determined relative to fluorescein (in 0.1 M NaOH), using 470 nm excitation."}, "[1]": {"assay": "Fluorescence excitation/emission spectra in 2% SDS at acidic and neutral pH (Example 20, FIG. 1)", "format": "physicochemical", "conditions": "2% SDS in 7% acetic acid or phosphate-buffered saline", "procedure": "FIG. 1: Fluorescence excitation/emission spectra of Compound 9. Spectra were generated in 7% acetic acid, 2% SDS. […] Identical spectra were obtained in phosphate-buffered saline, 2% sodium dodecyl sulfate (SDS).\nExcitation/emission profiles of Compound 9 are obtained by incubating a […] solution of the dye in 2% SDS that has been prepared in either 7% acetic acid or 50 mM Na2HPO4, 150 mM NaCl, pH 7.0 for 30 minutes. Without the SDS, the dye gives very low fluorescence emission in aqueous solutions or buffers. Measurements are made in a quartz cuvette using a Hitachi F4500 fluorescence Spectrometer (Hitachi, Tokyo, Japan) or similar instrument. Spectra generated in 7% acetic acid, 2% SDS can be essentially superimposed on spectra obtained in phosphate-buffered saline, 2% SDS. Excitation maxima are observed at 300 and 490 nm with emission set at 640 nm. An emission maximum is observed at 640 nm with excitation set at 440 nm. This excitation profile is ideally suited for visualization of the stain using a 302-nm UV-B transilluminator, 473-nm second harmonic generation (SHG) laser or 488-nm argon-ion laser. The dye can also be visualized on a blue-light box (DARK READER™, Clare Research, Boulder, Colo.). The emission maximum of the Compound 9 is observed at 640 nm, and is thus spectrally well matched to emission band-pass filters optimized for the Texas Red dye."}, "bovine serum albumin": {"molecular_target": "bovine serum albumin (Bos taurus, UniProt P02769)", "sequence (P02769 25-607)": "as above", "assay": "Fluorescence enhancement in presence of bovine serum albumin and SDS in solution (FIG. 5)", "format": "physicochemical", "conditions": "10 mM Tris, pH 8.0, 200 μg/mL bovine serum albumin", "procedure": "FIG. 5: Fluorescence enhancement of Compound 9 in the presence of bovine serum albumin and sodium dodecyl sulfate in solution. Dye in 10 mM Tris, pH 8.0, 200 μg/mL bovine serum albumin, 0.05% SDS was compared with dye in 10 mM Tris, pH 8.0, 200 μg/mL bovine serum albumin, dye in 10 mM Tris, pH 8.0, 0.05% SDS or simply dye in 10 mM Tris, pH 8.0. A 7-fold enhancement in fluorescence emission of the dye in the presence of protein alone was observed relative to the dye in buffer alone. A 40-fold enhancement of fluorescence emission of the dye in the presence of anionic detergent and protein was observed relative to dye in buffer alone."}, "tubulin": {"tested_on": "tubulin", "assay": "Electroblotting of tubulin from stained gels (Example 24)", "conditions": "phosphate-buffered saline staining formulation", "procedure": "Tubulin was selected as a model protein since it is relatively difficult to elute from gels by simple passive diffusion (Example 23). Two-fold serial dilutions of […] ranging from 1000 to 1 ng are applied and separated by sodium dodecyl sulfate (SDS)-polyacrylamide gel electrophoresis according to standard procedures. After electrophoresis, gels are stained with either Compound 9 or SYPRO Orange dye as described in Example 23, photographed and then incubated in a transfer buffer consisting of 10 mM Tris, 96 mM glycine, 10% methanol, 0.1% sodium dodecyl sulfate, pH 8.3. Proteins are electroblotted to poly(vinylidene difluoride) (PVDF) membranes using the same transfer buffer for 120 minutes using a semi-dry blotter by standard methods. Immunoblotting is performed by standard methods and colorimetric procedures are employed to detect the tubulin using 5-bromo-4-chloroindolyl phosphate/nitroblue tetrazolium (BCIP/NBT). […] Tubulin can subsequently be visualized by using alkaline phosphatase-conjugated secondary antibody with similar detection sensitivity as electroblots of unstained, control gels. The transfer of tubulin from gels stained with SYPRO Orange dye in 7% acetic acid is not possible despite a 20-minute incubation in transfer buffer containing 0.1% sodium dodecyl sulfate prior to blotting."}, "proteins [2]": {"tested_on": "proteins", "assay": "Dye staining and dye stability in 12.5% trichloroacetic acid", "procedure": "To make a staining mixture to combine with the sample mixture, including to test new dyes for their ability to stain proteins in a variety of situations, the selected dye is typically first dissolved in an organic solvent, such as DMSO, DMF or methanol, usually to a dye concentration of 1-10 mM. This concentrated stock solution is then generally diluted with an aqueous solution according to the assay being performed. Staining solutions can be stored and used for months without signal loss. The selected dye effectively stains proteins in a wide range of buffers if 100 mM NaCl is included in the staining solution. Acceptable buffers include, among others, 50-100 mM formate buffer, pH 4.0, sodium citrate, pH 4.5, sodium acetate, pH 5.0, MES, pH 6.0, imidazole, pH 7.0, HEPES, pH 7.5, Tris acetate, pH 8.0, Tris-HCl, pH 8.5, Tris borate, pH 9.0 and sodium bicarbonate, pH 10. Dye staining can also be performed in 12.5% trichloroacetic acid. […] A 20-minute wash in water removes the background and sensitive staining is obtained. […] Acetic acid may be included in the staining mixture, typically to a concentration of 5%-7.5% acetic acid, e.g. to improve labeling of gels relative to that obtained for dyes in water. For staining polypeptides in solution, the dye is diluted into an aqueous solution—preferably a buffered solution—that optionally contains a detergent. […]"}, "proteins [3]": {"tested_on": "proteins", "assay": "Staining of proteins separated in presence of alternative detergents", "conditions": "alternative detergents instead of SDS"}, "[4]": {"conditions": "150 μg/mL BSA, 10 mM Tris-HCl, pH 7.5, 0.05% SDS"}, "[5]": {"conditions": "dye without BSA, 10 mM Tris-HCl, pH 7.5, 0.05% SDS"}},
  "note": "Values joined by “and” are separate entries in the source; they are usually repeats but may differ in a detail not shown here. Identical values can stand only once.",
  "data": [
    {"smiles": "CCn1c2ccccc2c2cc(/C=C/c3cc[n+](CCCCS(=O)(=O)[O-])c4ccccc34)ccc21", "note": "[Compound 9]", "values": [
      {"measurement": "ABS λ max, BSA", "setting": "BSA; [4]", "value": 480, "unit": "nm"},
      {"measurement": "EM λ max, BSA", "setting": "BSA; [4]", "value": 604, "unit": "nm"},
      {"measurement": "FE (fluorescence enhancement, BSA)", "setting": "BSA; 150 μg/mL BSA, 0.05% SDS, at emission maxima, 470 nm excitation", "value": 92, "unit": "fold"},
      {"measurement": "Quantum Yield (BSA)", "setting": "BSA; 150 μg/mL BSA, relative to fluorescein in 0.1 M NaOH, 470 nm excitation", "value": 0.21},
      {"measurement": "ABS λ max, unbound", "setting": "BSA; [5]", "value": 479, "unit": "nm"},
      {"measurement": "EM λ max, unbound", "setting": "BSA; [5]", "value": "~700", "unit": "nm"},
      {"measurement": "Excitation maxima", "setting": "[1]; emission set at 640 nm", "value": "300 nm and 490 nm"},
      {"measurement": "Emission maximum", "setting": "[1]; excitation set at 440 nm", "value": 640, "unit": "nm"},
      {"measurement": "Enhancement in fluorescence emission, protein alone relative to dye in buffer alone", "setting": "bovine serum albumin", "value": 7, "unit": "fold"},
      {"measurement": "Enhancement of fluorescence emission, anionic detergent and protein relative to dye in buffer alone", "setting": "bovine serum albumin; 0.05% SDS", "value": 40, "unit": "fold"},
      {"measurement": "Transfer of tubulin from stained gel by electroblotting", "setting": "tubulin", "value": "readily transferred"},
      {"measurement": "Staining of proteins in 12.5% trichloroacetic acid", "setting": "proteins [2]", "value": "stains proteins brightly, but also with bright background fluorescence"},
      {"measurement": "Stability of dye on overnight exposure to 12.5% trichloroacetic acid", "setting": "proteins [2]; overnight", "value": "destroys much of the dye"},
      {"measurement": "Staining of proteins separated in presence of Triton X-100 or N-benzyl-N,N-dimethylhexadecylammonium chloride", "setting": "proteins [3]", "value": "does not stain proteins"}
    ]}
  ]
}
